Data set [1] deals with HSV-1. The data set can be described thus: Viral DNA (HSV-1 copies) within treated tumor samples, first oHSV experiment. As to conditions: for Total HSV-1 [copy/g tumor] mean: day 19. In kind it is in vivo, Balbc/j mice. As to the method:
At the end of efficacy monitoring period (on day 19 post-tumor cell inoculation, around ˜3-4 h after the last treatment with test compound), all surviving mice were anesthetized using isoflurane gas anesthesia (4% induction and 2% maintain) prior to blood sampling on heparin-coated tubes by retro-orbital puncture, for plasma collection. In addition, tumors were collected, snap-frozen, and stored at −80° C. until further analysis.
The tumors were collected as described above, snap frozen in liquid nitrogen and DNA of ˜25 mg tumor samples was extracted with a QIAamp DNA Mini Kit (Cat. No. 51326) on a QIAcube machine. 10 μL of the 200 μL HSV DNA containing elution volumue was quantified with an Argene HSV R-gene kit (Ref.: 69-004B) and normalized to 1 gram tumor sample (see below).

Data set [2] relates to HSV-1. Description: In vitro activity, HSV-1 infected Vero cells. In kind it is cell-based. Particulars: Human alphaherpesvirus 1, Vero. As for the experimental part: (§1) The in vitro activity of the new compounds was measured as described in WO2017/174640 and in WO2019/068817.
For data set [3] the following is noted: in vivo; cited from earlier work.
The next data set has as its system HSV-2. Description: In vitro activity, HSV-2 infected Vero cells. The data set is classed as cell-based. As to conditions: Human alphaherpesvirus 2, Vero. As to the method:
as §1

Data set [4] has as its system HSV-1. Description: Survival of mice in first oHSV experiment. The data set is classed as in vivo, Balbc/j mice. Particulars: high dose HSV group subsequently treated with compound. As for the experimental part:
Pharmacological animal groups (8 animal per group, 64 animals in total) were organized as such: • 1. Control virus-untreated group: test compound vehicle (200 μL, 5% DMSO; 0.5% hydroxypropylmethylcellulose (HPMC) in PBS) oral gavage (20 gauge needle standard suspension applicator), once a day, for 10 days and starting 72 h after virus injection for the other groups. • 2. Control virus vehicle-treated group: 50 μL of virus vehicle, intratumoral injection when tumors reached an average volume of app. 40 mm^3, with test compound vehicle, oral gavage, once a day, for 10 days and starting 72 h after vehicle virus injection. • 3. HSV-1 (quantity 1; 5×10^6 pfu)-treated group: 50 μL of HSV-1 (5×10^6), intratumoral injection when tumors reached an average volume of app. […] HSV-1 (quantity 2; 1×10^8 pfu)-treated group: 100 μL of HSV-1 (1×10^8) intratumoral injection when tumors reached an average volume of app. […] HSV-1 (quantity 1; 5×10^6 pfu)-test compound-treated group: 50 μL of HSV-1 (5×10^6), intratumoral injection when tumors reached an average volume of app. […] HSV-1 (quantity 2; 1×10^8 pfu)-test compound-treated group: 100 μL of HSV-1 (1×10^8), intratumoral injection when tumors reached an average volume of app. […]
As previously mentioned, tumor volume and body weight of the animals were measured and recorded three times per week. […]

For data set [5] the following is noted: in vivo; cited from earlier work. This is another data set of the same source.
In a further data set the test system is HSV-1 ACV resistant. The data set can be described thus: In vitro activity, HSV-1 ACV resistant. The data set is classed as cell-based. Particulars: Human alphaherpesvirus 1. As for the experimental part: as §1

In the case of `Cc1nc(N(C)C(=O)Cc2ccc(-c3cc(F)ccc3F)cc2)sc1[S@@](C)(=N)=O` [Example 7(−), (−)-(S)-2-(2′,5′-Difluoro-[1,1′-biphenyl]-4-yl)-N-methyl-N-(4-methyl-5-(S-methylsulfonimidoyl)thiazol-2-yl)acetamide], the “Total HSV-1 [copy/g tumor] mean” value was 154493 copy/g tumor with HSV-1 [1] (Group 5: HSV-1 5 × 10^6 pfu + 10 mg/kg 72 pi), 51301 copy/g tumor with HSV-1 [1] (Group 6: HSV-1 5 × 10^6 pfu + 10 mg/kg 72 pi + αPD1 + αCTLA-4), 74312 copy/g tumor in the data set on HSV-1 [1] (Group 7: HSV-1 1 × 10^8 pfu + 10 mg/kg 72 hpi) and 10600 copy/g tumor with HSV-1 [1] (Group 8: HSV 5 × 10^6 pfu + 10 mg/kg 2 h pi). Besides, the “reduction in viral DNA load” value in the data set with HSV-1 [1] (treatment 2 hours post infection compared to 72 hours delayed treatment) is “highest reduction in viral DNA load”. For the same compound, the IC50 in the data set with HSV-1 [2], in the data set on HSV-2 and with HSV-1 ACV resistant was 0.01 to 0.05 µM each time. Moreover, in data set [3], the “ED50 in animal models” value is “lowest ED50 in animal models reported so far”. In the data set with HSV-1 [4], the “rescue of mice from virus-induced death” value is on record as “the mice can be rescued”. Moreover, the brain exposure entry in data set [5] is recorded as “highest brain exposure reported to date”.

Values taken from US20240408068A1, “Helicase Primase Inhibitors For Treating Cancer In A Combination Therapy With Oncolytic Viruses” (priority 2018, published 2024).
